{"source": "paper PMC3154929", "about": "“Phosphatase-Coupled Universal Kinase Assay and Kinetics for First-Order-Rate Coupling Reaction” (PLoS ONE, 2011)", "target": "T1, human glucokinase (GCK) (Homo sapiens, UniProt P35557)", "T1 construct": "V16 to Q465, N-terminal 6xHis tag, expressed in E. coli", "T1 sequence (P35557 16-465)": "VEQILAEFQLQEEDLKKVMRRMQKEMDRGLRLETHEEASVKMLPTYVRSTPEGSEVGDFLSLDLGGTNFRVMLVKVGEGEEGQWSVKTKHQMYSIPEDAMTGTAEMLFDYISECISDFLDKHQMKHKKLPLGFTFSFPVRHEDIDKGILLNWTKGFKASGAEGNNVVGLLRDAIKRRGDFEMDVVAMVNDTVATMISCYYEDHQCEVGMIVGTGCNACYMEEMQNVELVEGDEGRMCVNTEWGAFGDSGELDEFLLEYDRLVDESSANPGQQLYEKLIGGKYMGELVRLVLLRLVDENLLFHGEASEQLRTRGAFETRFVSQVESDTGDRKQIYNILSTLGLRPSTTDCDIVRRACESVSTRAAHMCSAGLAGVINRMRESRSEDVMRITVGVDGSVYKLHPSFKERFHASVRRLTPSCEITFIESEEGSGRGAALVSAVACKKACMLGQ", "experiment": "CD39L2-coupled malachite green phosphate assay, OD620", "format": "biochemical", "conditions": "0.12 mM ATP, 10 mM MgCl2, 10 mM CaCl2, 150 mM NaCl, 25 mM Tris pH 7.5, room temperature", "data": [{"smiles": "OC[C@H]1OC(O)[C@H](O)[C@@H](O)[C@@H]1O", "note": "(stereo partly shown) [glucose]", "values": [{"measurement": "Km", "result": "7.23 ± 1.44", "unit": "mM"}]}]}
